Like-named read-outs stand apart in the source and are kept apart here.

11 molecules from patent publication US11485736B2 (KSQ Therapeutics, Inc., priority 2018, dated 2022) can be followed below.

A short description of data set [1]: ADME solubility determination at pH 2.0 and pH 7.4. The data set is classed as physicochemical. Particulars: aqueous buffer, thermodynamic from solid, LC-MS/MS. The method, boiled down: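 Dried residues of 10 mM DMSO stocks were shaken in PBS pH 7.4 or pH 2.0 for 24 hours at 25° C. and 1,100 rpm. After centrifugation, supernatants were quantified by LC-MS/MS against a standard of known concentration, applying a dilution factor.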

A short description of data set [2]: Liver microsomal stability, human liver microsomes. It counts as in vitro ADME. Particulars: 1 μM compound, NADPH, read-out: t1/2 (min) in HLM. The method, boiled down: (§1)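 Compound (1 μM final) was incubated with prewarmed human or rat liver microsomes (1 mg/mL in 100 mM phosphate master mix) plus NADPH; aliquots at 0.5–30 minutes were quenched in cold acetonitrile and quantified by LC-MS/MS. Half-life came from the ln(% remaining) versus time slope, converted to CLint (μL/min/mg prot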

The nature of data set [3]: Liver microsomal stability, rat liver microsomes. Particulars: 1 μM compound, NADPH, read-out: t1/2 (min) in RLM. It counts as in vitro ADME. The method, boiled down:
as §1
(In general: Liver microsomes are a subcellular fraction often used to study metabolism.)

Where [4] appears, read: PBS pH 2.0, shaken at 25° C. for 24 hours, read-out: Solubility at pH 2.0.
Setting [5] is: PBS pH 7.4, shaken at 25° C. for 24 hours, read-out: Solubility at pH 7.4.

In general, solubility refers to the concentration that dissolves in the medium under given conditions. Take `CCn1cc(C(F)(F)F)nc1-c1ccc(Cn2nc(OC)c3cnc(-c4c(OC)ncnc4C4CC4)nc32)cc1` [Example 176]: the solubility at 24 h is greater than 10 µM in data set [1] (setting [4]) and less than 10 µM in data set [1] (setting [5]). In addition, the half-life at 1 μM in data set [2] and in data set [3] was greater than 25 min throughout.

Turning to `COc1ncnc(C2CC2)c1-c1ncc2c(OC)nn(C(C)c3ccc(-c4nc(C(F)(F)F)cn4CCF)cc3)c2n1` (centres unmarked) [Example 177], the solubility at 24 h in data set [1] (setting [4]) and in data set [1] (setting [5]) was less than 10 µM throughout. Moreover, the half-life at 1 μM in data set [2] and in data set [3] was greater than 25 min throughout.

For the molecule `COc1ncnc(C2CC2)c1-c1ncc2c(OC)nn([C@@H](C)c3ccc(-c4nc(C(F)(F)F)cn4CCF)cc3)c2n1` [Example 178], the solubility at 24 h in data set [1] (setting [4]) and in data set [1] (setting [5]) was less than 10 µM in each case. Besides, the half-life at 1 μM in data set [2] and in data set [3] was greater than 25 min in each case.

For `CCn1cc(C(F)(F)F)nc1-c1ccc([C@H](C)n2nc(OC)c3cnc(-c4c(OC)ncnc4C4CC4)nc32)cc1` [Example 180], the solubility at 24 h in data set [1] (setting [4]) and in data set [1] (setting [5]) was less than 10 µM throughout. Besides, the half-life at 1 μM in data set [2] and in data set [3] was greater than 25 min each time.

Consider `COc1ncnc(C2CC2)c1-c1ncc2c(OC)nn([C@@H](C)c3ccc(-c4nc(C(F)(F)F)cn4C(C)C)cc3)c2n1` [Example 181], for which the results for the solubility at 24 h in data set [1] (setting [4]) and in data set [1] (setting [5]) were greater than 10 µM and less than 10 µM, respectively. The half-life at 1 μM in data set [2] and in data set [3] was greater than 25 min in each case.

For the molecule `CCOc1nn(Cc2ccc(-c3nc(C(F)(F)F)cn3CC)cc2)c2nc(-c3c(OC)ncnc3C3CC3)ncc12` [Example 182], the solubility at 24 h in data set [1] (setting [4]) and in data set [1] (setting [5]) was less than 10 µM throughout. Besides, the half-life at 1 μM in data set [2] and in data set [3] was greater than 25 min each time.

On to `CCOc1ncnc(C2CC2)c1-c1ncc2c(OCC)nn(Cc3ccc(-c4nc(C(F)(F)F)cn4CC)cc3)c2n1` [Example 183], for which the solubility at 24 h in data set [1] (setting [4]) and in data set [1] (setting [5]) was less than 10 µM in each case. For the same molecule, the half-life at 1 μM in data set [2] and in data set [3] was less than 25 min throughout.

As for `CCn1cc(C(F)(F)F)nc1-c1ccc(Cn2nc(OC3CCC3)c3cnc(-c4c(OC)ncnc4C4CC4)nc32)cc1` [Example 184], the solubility at 24 h in data set [1] (setting [4]) and in data set [1] (setting [5]) was less than 10 µM each time. In addition, the half-life at 1 μM in data set [2] and in data set [3] was less than 25 min each time.

Turning to `COc1ncnc(C2CC2)c1-c1ncc2c(OC)nn(Cc3ccc(-c4cn(C(C)C)c(C(F)(F)F)n4)cc3)c2n1` [Example 185], the solubility at 24 h in data set [1] (setting [4]) and in data set [1] (setting [5]) was less than 10 µM each time. Further, the half-life at 1 μM in data set [2] and in data set [3] was greater than 25 min throughout.

For `CCn1cc(C(F)(F)F)nc1-c1ccc(Cn2nc(N3CCC3)c3cnc(-c4c(OC)ncnc4C4CC4)nc32)cc1` [Example 186, 3-(azetidin-1-yl)-6-(4-cyclopropyl-6-methoxypyrimidin-5-yl)-1-(4-(1-ethyl-4-(trifluoromethyl)-1H-imidazol-2-yl)benzyl)-1H-pyrazolo[3,4-d]pyrimidine], the solubility at 24 h in data set [1] (setting [4]) and in data set [1] (setting [5]) was greater than 10 µM in each case. Moreover, the half-life at 1 μM in data set [2] and in data set [3] was less than 25 min in each case.

For `CCn1cc(C(F)(F)F)nc1-c1ccc(Cn2nc(C)c3cnc(-c4c(OC)ncnc4C4CC4)nc32)cc1` [Example 187, 6-(4-cyclopropyl-6-methoxypyrimidin-5-yl)-1-(4-(1-ethyl-4-(trifluoromethyl)-1H-imidazol-2-yl)benzyl)-3-methyl-1H-pyrazolo[3,4-d]pyrimidine], the solubility at 24 h in data set [1] (setting [4]) and in data set [1] (setting [5]) was less than 10 µM in each case. The half-life at 1 μM in data set [2] is greater than 25 min; in data set [3], less than 25 min.
